{"source": "patent US12472197B2", "about": "(priority 2020, dated 2025)", "key": {"[1]": {"test_system": "SARS-CoV-2 (WA1/2020 strain)", "assay": "Virus yield reduction (VYR) assay, SARS-CoV-2 in Vero76 cells", "assay_type": "cell-based", "details": "for EC90: Vero76 cells"}, "[2]": {"test_system": "SARS-CoV (Urbani strain)", "assay_type": "cell-based", "details": "Vero-76 cells"}, "[3]": {"assay": "Phase 1 single ascending dose study, intravenous administration in healthy human subjects", "assay_type": "in vivo", "details": "for AUC0-inf / AUC24 / CL / Cmax / Vz / t1/2 / AUCt: geometric mean, preliminary; for AUCt: t 120 h to 480 h", "description": "The agent used in this Example was compound A (the compound of formula I, where A is NH2 and B is H as the HCL salt). A phase 1 double-blind, placebo-controlled, single ascending dose study was conducted to evaluate the safety, tolerability, and pharmacokinetics of Compound A administered by intravenous (IV) administration in healthy human subjects. Four cohorts were administered the study drug at the following doses: 5 mg/kg, 10 mg/kg, 15 mg/kg, and 20 mg/kg. Eight subjects received a single IV dose per cohort (6 subjects received Compound A; 2 subjects received matching placebo). Subject dosing was staggered as a safety precaution.\nThe plasma PK concentration-time profile of Compound A at all doses was characterized by an initial rapid distribution and clearance phase, and a slow terminal clearance phase. […] The inter-subject variability in exposure (Cmax and AUC) was low, as reflected in the geometric mean coefficients of variance (CVs) on these parameters. No subjects met any stopping criteria for any cohort."}, "[4]": {"assay": "NOAEL exposure in NHP", "assay_type": "in vivo", "details": "30 mg/kg dose"}, "[5]": {"details": "human, in vivo"}, "[6]": {"details": "human, in vivo", "remark": "listed apart in the source"}, "[7]": {"test_system": "MERS-CoV (Jordan strain)", "assay_type": "cell-based", "details": "Vero-76 cells"}, "[8]": {"details": "human, in vivo", "remark": "listed apart in the source"}, "[9]": {"test_system": "Vero76 cells"}, "[10]": {"test_system": "SARS-CoV-2", "assay": "Randomized placebo-controlled dose-ranging study, IV infusion in hospitalized adults with COVID-19 (Part 1)"}, "[11]": {"test_system": "SARS-CoV-2 (WA1/2020 isolate)", "assay": "SARS-CoV-2 hamster model of infection", "details": "for lung tissue histopathology (total histology score) vs vehicle control: Days +3 and +7; for lung viral burden lower than vehicle control: 100 mg/kg BID i.p., Day 3 post-infection"}, "[12]": {"details": "EC50 adjusted with CLE, read-out: Adjusted EC50"}, "[13]": {"details": "NR uptake, MOI 0.001, 3 days, read-out: EC50"}}, "note": "Where two headings read alike, the source gives them in different places.", "data": [{"smiles": "Nc1ncnc2c([C@@H]3N[C@H](CO)[C@@H](O)[C@H]3O)c[nH]c12", "note": "[Compound A]", "values": [{"measurement": "EC90", "setting": "[1]; EC90 adjusted with CLE, read-out: Adjusted EC90", "result": 0.87, "unit": "µM"}, {"measurement": "SI", "setting": "[1]; SI=CC50/EC90, Vero76 cells", "result": ">27"}, {"measurement": "EC90", "setting": "[1]; VYR at day 3, MOI 0.002, compound added 24 hours prior to infection, read-out: EC90", "result": 10.9, "unit": "µM"}, {"measurement": "EC50", "setting": "[2]; [12]", "result": 4.6, "unit": "µM"}, {"measurement": "EC50", "setting": "[2]; [13]", "result": 57.7, "unit": "µM"}, {"measurement": "AUC0-inf", "setting": "[3]; single IV dose 5 mg/kg", "result": 21200, "unit": "ng·h/mL"}, {"measurement": "AUC24", "setting": "[3]; single IV dose 5 mg/kg", "result": 10950, "unit": "ng·h/mL"}, {"measurement": "CL", "setting": "[3]; single IV dose 5 mg/kg", "result": 17.1, "unit": "L/h"}, {"measurement": "Cmax", "setting": "[3]; single IV dose 5 mg/kg", "result": 5540, "unit": "ng/mL"}, {"measurement": "Vz", "setting": "[3]; single IV dose 5 mg/kg", "result": 2725, "unit": "L"}, {"measurement": "t1/2", "setting": "[3]; single IV dose 5 mg/kg", "result": 111, "unit": "h"}, {"measurement": "AUCt", "setting": "[3]; single IV dose 5 mg/kg", "result": 17100, "unit": "ng·h/mL"}, {"measurement": "AUC0-inf", "setting": "[3]; single IV dose 10 mg/kg", "result": 37100, "unit": "ng·h/mL"}, {"measurement": "AUC24", "setting": "[3]; single IV dose 10 mg/kg", "result": 21070, "unit": "ng·h/mL"}, {"measurement": "CL", "setting": "[3]; single IV dose 10 mg/kg", "result": 20.7, "unit": "L/h"}, {"measurement": "Cmax", "setting": "[3]; single IV dose 10 mg/kg", "result": 10300, "unit": "ng/mL"}, {"measurement": "Vz", "setting": "[3]; single IV dose 10 mg/kg", "result": 3049, "unit": "L"}, {"measurement": "t1/2", "setting": "[3]; single IV dose 10 mg/kg", "result": 114.5, "unit": "h"}, {"measurement": "AUCt", "setting": "[3]; single IV dose 10 mg/kg", "result": 32400, "unit": "ng·h/mL"}, {"measurement": "AUC0-inf", "setting": "[3]; single IV dose 15 mg/kg", "result": 65900, "unit": "ng·h/mL"}, {"measurement": "AUC24", "setting": "[3]; single IV dose 15 mg/kg", "result": 34370, "unit": "ng·h/mL"}, {"measurement": "CL", "setting": "[3]; single IV dose 15 mg/kg", "result": 16.7, "unit": "L/h"}, {"measurement": "Cmax", "setting": "[3]; single IV dose 15 mg/kg", "result": 17700, "unit": "ng/mL"}, {"measurement": "Vz", "setting": "[3]; single IV dose 15 mg/kg", "result": 4138, "unit": "L"}, {"measurement": "t1/2", "setting": "[3]; single IV dose 15 mg/kg", "result": 182.5, "unit": "h"}, {"measurement": "AUCt", "setting": "[3]; single IV dose 15 mg/kg", "result": 59900, "unit": "ng·h/mL"}, {"measurement": "AUC0-inf", "setting": "[3]; single IV dose 20 mg/kg", "result": 81200, "unit": "ng·h/mL"}, {"measurement": "AUC24", "setting": "[3]; single IV dose 20 mg/kg", "result": 44770, "unit": "ng·h/mL"}, {"measurement": "CL", "setting": "[3]; single IV dose 20 mg/kg", "result": 17.9, "unit": "L/h"}, {"measurement": "Cmax", "setting": "[3]; single IV dose 20 mg/kg", "result": 20500, "unit": "ng/mL"}, {"measurement": "Vz", "setting": "[3]; single IV dose 20 mg/kg", "result": 4010, "unit": "L"}, {"measurement": "t1/2", "setting": "[3]; single IV dose 20 mg/kg", "result": 133.5, "unit": "h"}, {"measurement": "AUCt", "setting": "[3]; single IV dose 20 mg/kg", "result": 73400, "unit": "ng·h/mL"}, {"measurement": "safety and tolerability", "setting": "[3]; single IV dose 5-20 mg/kg, healthy subjects", "result": "generally safe and well tolerated"}, {"measurement": "dose proportionality of Cmax, AUCt and AUCinf", "setting": "[3]; single IV doses 5-20 mg/kg", "result": "increased in dose-proportional manner"}, {"measurement": "NOAEL exposure", "setting": "[4]", "result": "approximately 52,500 ng*h/mL"}, {"measurement": "safety and tolerability", "setting": "[5]", "result": "generally safe and well tolerated"}, {"measurement": "dose proportionality of exposure", "setting": "[6]", "result": "dose-proportional and linear with increasing dose"}, {"measurement": "safety and tolerability", "setting": "[6]", "result": "generally safe and well tolerated"}, {"measurement": "time after administration at which plasma concentrations were maximal", "setting": "[6]", "result": "1 to 2", "unit": "h"}, {"measurement": "increase in exposure (AUC) with repeat dosing", "setting": "[6]; im", "result": "approximately 1.5 fold"}, {"measurement": "t1/2", "setting": "[6]; im, 2.5 mg/kg", "result": "104 (15.9) h"}, {"measurement": "t1/2", "setting": "[6]; im, 5 mg/kg", "result": "85.7 (17.3) h"}, {"measurement": "AUC0-24", "setting": "[6]; im, 10 mg/kg", "result": 20300, "unit": "ng·h/mL"}, {"measurement": "AUCtau", "setting": "[6]; im, 10 mg/kg", "result": 34500, "unit": "ng·h/mL"}, {"measurement": "Cmax", "setting": "[6]; im, 10 mg/kg", "result": 7980, "unit": "ng/mL"}, {"measurement": "Tmax", "setting": "[6]; im, 10 mg/kg", "result": 0.375, "unit": "h"}, {"measurement": "t1/2", "setting": "[6]; im, 10 mg/kg", "result": "113 (26.4) h"}, {"measurement": "EC50", "setting": "[7]; [12]", "result": 2.15, "unit": "µM"}, {"measurement": "EC50", "setting": "[7]; [13]", "result": 26.9, "unit": "µM"}, {"measurement": "safety and tolerability", "setting": "[8]", "result": "generally safe and well tolerated"}, {"measurement": "CC50", "setting": "[9]", "result": "> 296", "unit": "µM"}, {"measurement": "safety and tolerability", "setting": "[10]; Cohorts 1-3, IV loading/maintenance regimens for 7 days, hospitalized COVID-19 patients", "result": "safe and generally well tolerated"}, {"measurement": "clinical efficacy compared to placebo", "setting": "[10]; Cohorts 1-3, Part 1 not sized for efficacy", "result": "no clinical efficacy benefit"}, {"measurement": "decline in viral RNA levels in the respiratory tract", "setting": "[10]; Cohorts 1-3, apparent dose-dependent manner", "result": "more rapid decline in viral RNA levels in the respiratory tract"}, {"measurement": "time to a negative viral RNA result in LRT samples compared to placebo", "setting": "[10]; Cohorts 1-3, shortest in Cohorts 2 and 3", "result": "shorter time to a negative viral RNA result"}, {"measurement": "lung tissue histopathology (total histology score) vs vehicle control", "setting": "[11]; Group 1 (first dose −24 hours)", "result": "reduced/no tissue histopathology as compared with vehicle control"}, {"measurement": "animals that achieved PFU<10 (lower limit of quantification) in OP swabs", "setting": "[11]; Group 1, 100 mg/kg BID i.p., first dose −24 hr", "result": 62.5, "unit": "%"}, {"measurement": "weight loss", "setting": "[11]; Group 1, 100 mg/kg BID i.p., first dose −24 hr relative to infection", "result": "< 5", "unit": "%"}, {"measurement": "lung tissue histopathology (total histology score) vs vehicle control", "setting": "[11]; Group 2 (first dose +1.5 hours)", "result": "reductions relative to vehicle control"}, {"measurement": "lung viral burden lower than vehicle control", "setting": "[11]; Group 3 (first dose +24 hours)", "result": "~0.66", "unit": "log"}, {"measurement": "clinical scores, adverse impact of dosing", "setting": "[11]; Groups 1-3, 100 mg/kg BID i.p.", "result": "no adverse impact"}, {"measurement": "lung viral burden lower than vehicle control", "setting": "[11]; Groups 1 and 2 (first dose −24 and +1.5 hours)", "result": "1.4-1.6 log"}]}]}
